Measurements taken from patent US20250302798A1, “STING INHIBITORS AND USE THEREOF” (CARMEL HAIFA UNIVERSITY ECONOMIC CORPORATION LTD., priority 2022, published 2025).
Entries after “also recorded” stand apart in the source; their conditions may differ.

How the values were obtained:
STING [1] = target: T1, STING (Homo sapiens, UniProt Q86WV6); experiment: Cytokine expression and STING signaling in PMA-differentiated U937 macrophages; type: cell-based; details: 50 nM, compared with c-GAMP 1 μg/ml
T1 construct: endogenous in cells; host or cells: U937 cells differentiated with PMA
Protocol: FIGS. 8A-8G include graphs and an image showing that compound 2.1 activates cytokine expression and STING signaling in human macrophages in a similar fashion to cGAMP. Human monocytes of the U937 cell line were treated with phorbol 12-myristate 13-acetate (PMA; 50 ng/ml) for 48 hours. Then, differentiated macrophages (4×10^6 cells) were treated with c-di-GMP (10 μg/ml), c-GAMP (1 μg/ml), compound 2.1 (50 nM) or vehicle for 8 (8A-8F) or 2 (8G) hours. Cells (8A-8D, and 8G) or culture supernatants (8E-8F), were collected and analyzed by RT-PCR, ELISA, and immunoblotting for: TNFα (8A), IL-6 (8B), IL-10 (8C), IFN-β (8D), IL-10 (8E), and TNFα (8F), or STING-IFN-β-RGS2 pathway proteins and actin as a loading control (8G). Results are representative mean±SEM from 3 experiments. One-way ANOVA, and Tukey HSD test ** P≤0.01, P<0.001, **** P≤0.0001.

STING [2] = target: T2, STING (Mus musculus, UniProt Q3TBT3); experiment: Cytokine secretion (ELISA) from DMXAA-activated splenocytes; type: cell-based, C57BL/6 mice; parameters: Splenocytes were recovered from C57BL/6 WT female mice; endogenous in cells; host or cells: primary splenocytes of C57BL/6 mice
T2 sequence (Q3TBT3 1-378): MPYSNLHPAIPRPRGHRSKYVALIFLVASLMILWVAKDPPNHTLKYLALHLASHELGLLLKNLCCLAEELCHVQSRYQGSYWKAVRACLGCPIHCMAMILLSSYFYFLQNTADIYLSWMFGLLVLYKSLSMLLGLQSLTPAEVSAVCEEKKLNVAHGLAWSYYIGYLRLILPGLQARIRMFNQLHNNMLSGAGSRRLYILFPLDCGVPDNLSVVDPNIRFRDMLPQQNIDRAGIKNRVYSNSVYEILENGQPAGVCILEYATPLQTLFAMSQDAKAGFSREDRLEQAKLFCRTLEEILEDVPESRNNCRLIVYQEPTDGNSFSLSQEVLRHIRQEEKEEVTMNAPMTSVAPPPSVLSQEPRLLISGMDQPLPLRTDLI
Protocol: FIGS. 1A-1B include bar graphs showing that Cluster 1 and 9 inhibit tumor necrosis factor alpha (TNFα) while only cluster 1 promotes IL-10 secretion from resting splenocytes activated by the selective STING agonist DMXAA. Splenocytes were recovered from C57BL/6 WT or STING^−/− female mice and were incubated (1×10^6 cells in 0.5 mL of culture media) overnight with a premade mixture of the individual compounds in each cluster (5-500 nM) or vehicle, and DMXAA (10 μM). Next, culture supernatants were collected and TNFα(1A) or IL-10 (1B) levels were determined by standard enzyme-linked immunosorbent assay ELISA (Biolegend).
FIGS. 2A-2D include graphs showing that compounds 5.9 and 7.9 inhibit TNFα and IL-10 secretion from DMXAA-activated splenocytes. Splenocytes were recovered from C57BL/6 WT female mice and incubated (1×10^6 cells in 0.5 mL of culture media) overnight with the individual compounds from cluster 9 (50-5,000 nM) or vehicle and DMXAA (5-10 μM; 2A-2B) or at 5,000 nM without DMXAA (2C-2D). Next, culture supernatants were collected and TNFα (2A, and 2C) or IL-10 (2B, and 2D) levels were determined by standard ELISA. In 2A-2B, black horizontal line indicates secretion level from vehicle-treated cells.
FIGS. 3A-3H include graphs and an image showing that compounds 2.1, 4.1, and 6.1 inhibit TNFα but promote IL-10 and IFN-beta secretion from DMXAA-activated splenocytes. Splenocytes were recovered from C57BL/6 WT female mice and incubated (1×10^6 cells in 0.5 mL of culture media) overnight with the individual compounds from cluster 1 (50-5,000 nM) or vehicle and DMXAA (10 μM; 3A, 3C, and 3E) or at 5,000 nM without DMXAA (3B, 3D, and 3F). Next, culture supernatants were collected and TNFα (3A-3B), IL-10 (3C-3D), or IFN-beta (3E-3F) levels were determined by standard ELISA. In 3A, 3C, and 3E, black horizontal line indicates secretion level from vehicle-treated cells. (3G-3H) Biased STING agonists (BiSTs) enhance DMXAA-induced STING signaling. Splenocytes were treated with 25 μg/ml DMXAA and 50 nM of compound 2.1 for 1-4 hr (3G). Then, the cells were analyzed by immunoblotting for phosphorylated STING, TBK-1, IRF3, and NF-kB, or their unphosphorylated controls, or actin as a loading control. Densitometry analysis for phosphorylated STING (p-STING) and STING proteins (3H) is also shown. Results are representative (3G) or mean±SEM (3H) from 3 repeats. One-way ANOVA, and Tukey HSD test *P<0.05.
Splenocytes were isolated from the spleens of unchallenged C57BL/6 WT or STING-KO mice by meshing against a grid. Peritoneal macrophages were isolated from mice undergoing peritonitis for 66 hr by washing with 5 ml PBS. The cellular exudate was stained with phycoerythrin (PE)-conjugated anti-F4/80 antibodies (bioLegend, CA, USA) and macrophages were isolated using magnetic beads (STEMCELL Technologies Inc, Vancouver, Canada). Isolated splenocytes or macrophages (0.5-1×10^6 cells per well) were incubated with 50-5,000 nM of individual substances or pooled clusters thereof. Then, the cells were treated with vehicle or 5-10 μM DMXAA (Cayman Chemical, MI, USA) to activate STING. After 24 hr, culture supernatants were collected and evaluated for levels of: TNFα, IFN-β and/or IL-10 using, standard ELISA (BioLegend, CA, USA).
To test which cluster(s) included compounds that modulate STING-mediated cytokine production, wild-type (WT) or STING knockout (−/−) splenocytes were incubated with the selective murine STING agonist DMXAA alone or with 5-500 nM of the pooled individual compounds in each cluster as indicated.
Next, the individual compounds in clusters 1 and 9 were tested at 50-5,000 nM. The first experiment was performed in resting splenocytes as detailed above.

[3] = individual compounds 50-5,000 nM + DMXAA 5-10 μM, overnight

T1 sequence (Q86WV6 whole entry H232R): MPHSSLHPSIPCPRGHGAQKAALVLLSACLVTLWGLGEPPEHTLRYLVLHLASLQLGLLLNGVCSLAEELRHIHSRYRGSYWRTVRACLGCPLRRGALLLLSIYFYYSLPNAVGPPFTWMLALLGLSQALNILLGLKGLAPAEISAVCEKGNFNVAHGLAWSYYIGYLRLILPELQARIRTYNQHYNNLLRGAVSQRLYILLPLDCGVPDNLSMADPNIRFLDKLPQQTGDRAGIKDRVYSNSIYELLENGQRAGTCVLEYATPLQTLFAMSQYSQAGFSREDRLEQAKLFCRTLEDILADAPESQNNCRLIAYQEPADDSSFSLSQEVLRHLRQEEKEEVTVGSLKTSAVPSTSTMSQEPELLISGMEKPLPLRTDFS

STING signaling (STING-IFN-β-RGS2 pathway proteins) (STING [1]; 2 hours): activates
Cytokine expression (TNFα, IL-6, IL-10, IFN-β) (STING [1]; 8 hours): activates
STING inhibition (ranking) (STING [2]; at 5,000 nM, resting splenocytes): Best STING Inhibitors
Mode of action on STING (overall) (STING [2]; summary over various cell types, DMXAA stimulation): biased agonists
Compound: c1ccc(CSc2nnc(CCCCCCCCc3nnc(SCc4ccccc4)o3)o2)cc1 [Compound 2.1, 2-(benzylsulfanyl)-5-{8-[5-(benzylsulfanyl)-1,3,4-oxadiazol-2-yl]octyl}-1,3,4-oxadiazole]
IFN-beta secretion (STING [2]; individual compounds 50-5,000 nM + DMXAA 10 μM, overnight): most potent inducer; also recorded: promote
IL-10 secretion (STING [2]; [3]): most potent inducer; also recorded: promote
TNFα secretion (STING [2]; [3]): doing so at lower concentrations; also recorded: inhibit
